These results are taken from patent publication US8110657B2, “Polypeptides and polynucleotides for enhancing immune reactivity to HER-2 protein” (priority 1999, dated 2012).

This test concerns autologous targets. Description: CTL assay (chromium release). It is filed as cell-based. To be noted: two in vitro re-stimulations, IL-2 added.

Take “DW2: amino acids 391-399 of the HER-2 protein, T cell epitope (PLQPEQLQV; UniProt P04626 391-399, looked up, fragment)”: the “CTL lysis of targets” value was “able to specifically lyse autologous targets in a dose dependent manner”.
